From PMC9469100, “Turning Nonselective Inhibitors of Type I Protein Arginine Methyltransferases into Potent and Selective Inhibitors of Protein Arginine Methyltransferase 4 through a Deconstruction–Reconstruction and Fragment-Growing Approach” (Journal of Medicinal Chemistry, 2022)
Read-outs that look alike come from different tables or passages of the source.

Tests used:
PRMT1 = PRMT1 (Homo sapiens, UniProt Q99873); experiment: AlphaLISA PRMT1 activity assay (H4R3me); settings: for IC50: AlphaLISA, hPRMT1, 10-concentration mode, threefold dilutions starting at 100 μM; for LE: ligand efficiency calculated from PRMT1 IC50 as a surrogate for KD
PRMT1, sequence (Q99873 whole entry): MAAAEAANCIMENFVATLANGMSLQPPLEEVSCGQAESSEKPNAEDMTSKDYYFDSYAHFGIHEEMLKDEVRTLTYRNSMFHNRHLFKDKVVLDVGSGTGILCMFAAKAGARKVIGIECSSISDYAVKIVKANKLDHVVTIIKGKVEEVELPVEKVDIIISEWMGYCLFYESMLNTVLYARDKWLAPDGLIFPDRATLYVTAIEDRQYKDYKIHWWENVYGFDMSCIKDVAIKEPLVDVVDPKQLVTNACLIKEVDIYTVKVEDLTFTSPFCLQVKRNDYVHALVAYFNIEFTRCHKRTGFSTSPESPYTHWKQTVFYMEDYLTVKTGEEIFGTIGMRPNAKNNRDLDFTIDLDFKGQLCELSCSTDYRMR
Description: Then, we resolved to determine their effect on the catalytic activity of human recombinant PRMT1, chosen as representative of class I PRMTs. […] PRMT1 activity assays were performed by taking advantage of the AlphaLISA homogeneous proximity assay.
The reaction was incubated for 60 min, and then it was stopped by the addition of 5 μL of antimethyl-histone H4 arginine 3 (H4R3me) AlphaLISA acceptor beads (PerkinElmer, #AL150) (final concentration, 20 μg/mL) diluted in Epigenetic Buffer 1X (PerkinElmer, #AL008).
For each incubation step, the OptiPlate was sealed with protective foil to prevent evaporation and contamination. Donor and acceptor beads were added in subdued light.
The 100% activity (positive control) was reached using the vehicle (DMSO) while the 0% activity (negative control) was obtained without the protein. Data were analyzed using Excel software. Values obtained for each compound are mean ± SD determined for three separate experiments.

[1] = molecular target: T1, human PRMT4 (full length) (Homo sapiens, UniProt Q86X55); experiment: SPR binding to immobilized PRMT4
T1 construct: Full-length recombinant PRMT4 (Active motif, # 81107); purchased Active motif # 81107
T1 sequence (Q86X55 1-608): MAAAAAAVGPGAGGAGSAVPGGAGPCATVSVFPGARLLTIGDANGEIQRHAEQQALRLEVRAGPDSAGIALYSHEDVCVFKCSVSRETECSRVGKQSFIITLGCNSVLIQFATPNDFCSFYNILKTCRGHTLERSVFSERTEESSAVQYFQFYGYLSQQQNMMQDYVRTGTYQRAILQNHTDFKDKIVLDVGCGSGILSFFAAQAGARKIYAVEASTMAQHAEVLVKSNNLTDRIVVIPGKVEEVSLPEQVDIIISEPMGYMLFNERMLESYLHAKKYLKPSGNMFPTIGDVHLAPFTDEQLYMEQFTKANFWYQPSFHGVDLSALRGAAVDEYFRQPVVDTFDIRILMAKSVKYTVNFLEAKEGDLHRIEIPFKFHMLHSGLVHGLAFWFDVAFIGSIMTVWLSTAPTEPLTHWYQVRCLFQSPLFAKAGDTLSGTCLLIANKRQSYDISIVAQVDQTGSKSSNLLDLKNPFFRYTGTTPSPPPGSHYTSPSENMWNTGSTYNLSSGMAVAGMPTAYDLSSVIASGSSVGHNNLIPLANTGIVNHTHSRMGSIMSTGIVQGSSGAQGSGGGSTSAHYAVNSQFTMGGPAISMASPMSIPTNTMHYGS
Description: To this aim, human PRMT4 (full length) was covalently immobilized on a sensor chip surface using an amine-coupling approach, and the three compounds were injected at different concentrations over the protein surface. To reduce false positives from detergent-sensitive, nonspecific aggregation-based binding, detergents (0.05% Tween-20) were added to the running buffer in all experiments.
SPR experiments were performed on a Biacore T200 biosensor (Cytiva). PBS buffer (phosphate-buffered saline, pH 7.4) supplemented with 0.05% Tween-20 was used as the running buffer. […] One flow cell was left empty for background subtractions. […] Each compound was tested in […], prepared starting from 640 to 10 nM. Binding experiments were performed at 25 °C by using a flow rate of 30 μL/min, with 90 s monitoring of association and 90 s monitoring of dissociation. Regeneration of the surfaces was performed, when necessary, by a 10 s injection of 5 mM NaOH. […] The corrected sensorgrams for each compound were fitted simultaneously using a 1:1 Langmuir model to obtain equilibrium dissociation constants (KD) and kinetic dissociation (koff) and association (kon) constants.

[2] = read-out: % PRMT1 residual activ. @ 100 μM
[3] = read-out: % PRMT1 residual activity at 100 uM

Compound | remaining activity at 100 µM (PRMT1; [2]) | remaining activity at 100 µM (PRMT1; [3]) | further results
COC(=O)c1cc(O)c2cc(NC(=O)CCCCNC(=N)N)ccc2c1 [5a, Methyl 6-(5-Guanidinopentanamido)-4-hydroxy-2-naphthoate] | 35 ± 0.3% | 35 ± 0.3% | –
COC(=O)c1cc(O)c2cc(NC(=O)CCCCCCNC(=N)N)ccc2c1 [5c, Methyl 6-(7-Guanidinoheptanamido)-4-hydroxy-2-naphthoate] | -0.49 ± 0.1% | -0.49 ± 0.1% | IC50 (PRMT1): 3.8 µM; LE (PRMT1): 0.27
COC(=O)c1cc(O)c2cc(NC(=O)CCCCNC3=NCCN3)ccc2c1 [5g, Methyl 6-(5-((4,5-Dihydro-1H-imidazol-2-yl)amino)pentanamido)-4-hydroxy-2-naphthoate] | 122 ± 5.8% | 122 ± 5.8% | –
N=C(N)NCCCCC(=O)Nc1ccc2cc(C(=O)O)cc(O)c2c1 [6a, 6-(5-Guanidinopentanamido)-4-hydroxy-2-naphthoic Acid] | 69.7 ± 2% | 69.7 ± 2% | –
N=C(N)NCCCCCC(=O)Nc1ccc2cc(C(=O)O)cc(O)c2c1 [6b, 6-(6-Guanidinohexanamido)-4-hydroxy-2-naphthoic Acid] | 65.9 ± 1% | 65.9 ± 1% | –
CNC(=N)NCCCCCC(=O)Nc1ccc2cc(C(=O)O)cc(O)c2c1 [6d, 4-Hydroxy-6-(6-(3-methylguanidino)hexanamido)-2-naphthoic Acid] | 50.4 ± 0.2% | 50.4 ± 0.2% | –
CN(C)C(=N)NCCCCC(=O)Nc1ccc2cc(C(=O)O)cc(O)c2c1 [6e, 6-(5-(3,3-Dimethylguanidino)pentanamido)-4-hydroxy-2-naphthoic Acid] | 36.8 ± 0.3% | 36.8 ± 0.3% | –
O=C(CCCCNC1=NCCN1)Nc1ccc2cc(C(=O)O)cc(O)c2c1 [6f, 6-(5-((4,5-Dihydro-1H-imidazol-2-yl)amino)pentanamido)-4-hydroxy-2-naphthoic Acid] | 25.1 ± 1.5% | 25.1 ± 1.5% | –
C[S+](CC[C@H](N)C(=O)[O-])C[C@H]1O[C@@H](n2cnc3c(N)ncnc32)[C@H](O)[C@@H]1O (stereo partly drawn) [SAM, S-adenosyl-L-methionine, reference compound] | – | – | Kd [1]: 0.0096 µM; koff ([1]; SPR, immobilized PRMT4): 0.003 s⁻¹; kon ([1]; SPR, immobilized PRMT4, read-out: kon): 290000 M⁻¹ s⁻¹; τR ([1]; in vitro residence time, τ = 1/koff): 333.3 s

More lines, main results first:

remaining activity at 100 µM (PRMT1; [2]) | remaining activity at 100 µM (PRMT1; [3]) | Compound | further results
0.4 ± 0.1% | 0.4 ± 0.1% | COC(=O)c1cc(O)c2cc(NC(=O)NCCCNC(=N)N)ccc2c1 [7a, Methyl 6-(3-(3-Guanidinopropyl)ureido)-4-hydroxy-2-naphthoate] | IC50 (PRMT1): 1.6 µM; LE (PRMT1): 0.31
-0.91 ± 0.1% | -0.91 ± 0.1% | COC(=O)c1cc(O)c2cc(NC(=O)NCCCCCNC(=N)N)ccc2c1 [7c, Methyl 6-(3-(5-Guanidinopentyl)ureido)-4-hydroxy-2-naphthoate] | IC50 (PRMT1): 1.2 µM; LE (PRMT1): 0.30
0.2 ± 0.1% | 0.2 ± 0.1% | CNC(=N)NCCCNC(=O)Nc1ccc2cc(C(=O)OC)cc(O)c2c1 [7d, Methyl 4-Hydroxy-6-(3-(3-(3-methylguanidino)propyl)ureido)-2-naphthoate] | IC50 (PRMT1): 0.4 µM; LE (PRMT1): 0.33
65.6 ± 2.1% | 65.6 ± 2.1% | COC(=O)c1cc(O)c2cc(NC(=O)NCCCn3ccnc3)ccc2c1 [7f, Methyl 6-(3-(3-(1H-Imidazol-1-yl)propyl)ureido)-4-hydroxy-2-naphthoate] | –
31.5 ± 3.1% | 31.5 ± 3.1% | N=C(N)NCCCCNC(=O)Nc1ccc2cc(C(=O)O)cc(O)c2c1 [8a, 6-(3-(4-Guanidinobutyl)ureido)-4-hydroxy-2-naphthoic Acid] | –
36.9 ± 10.5% | 36.9 ± 10.5% | O=C(NCCCn1ccnc1)Nc1ccc2cc(C(=O)O)cc(O)c2c1 [8b, 6-(3-(3-(1H-Imidazol-1-yl)propyl)ureido)-4-hydroxy-2-naphthoic Acid] | –
92.1 ± 15.8% | 92.1 ± 15.8% | COC(=O)c1cc(O)c2cc(NC(=O)[C@@H](N)CCSC)ccc2c1 [9c, Methyl (S)-6-(2-Amino-4-(methylthio)butanamido)-4-hydroxy-2-naphthoate] | –
75.9 ± 4.8% | 75.9 ± 4.8% | COC(=O)c1cc(O)c2cc(NC(=O)[C@H](CCSC)NC(=O)Nc3ccc(OC)cc3)ccc2c1 [9d, Methyl (S)-4-Hydroxy-6-(2-(3-(4-methoxyphenyl)ureido)-4-(methylthio)butanamido)-2-naphthoate] | –
87.1 ± 2.9% | 87.1 ± 2.9% | COC(=O)c1cc(O)c2cc(NC(=O)CNC(=O)Nc3ccc(OC)cc3)ccc2c1 [10c, Methyl 4-Hydroxy-6-(2-(3-(4-methoxyphenyl)ureido)acetamido)-2-naphthoate] | –
34.2 ± 5.1% | 34.2 ± 5.1% | COC(=O)c1cc(O)c2cc(NC(=O)[C@@H](N)CCCNC(=N)N)ccc2c1 [11c, Methyl (S)-6-(2-Amino-5-guanidinopentanamido)-4-hydroxy-2-naphthoate] | –
